From patent US7052705B2, “Anti-angiogenic peptides” (Regeneron Pharmaceuticals, Inc., priority 2001, dated 2006)
Several values for one entry are separate records, joined by “and”; a condition that tells them apart may be missing. Identical values can stand only once. Like-named read-outs stand apart in the source and are kept apart here. Ends that are not written are not given here.

Columns and labels:
NP-1 [1] = target: T1, NP-1 (Homo sapiens, UniProt O14786); assay type: binding; set-up: the NP-1 cDNA used for these experiments would only produce the full-length receptor; expressed in transfected cells; host or cells: COS-1
Experimental: (§1) When co-expressing VEGFR-2 and NP-1, 5 μg of VEGFR-2 cDNA and 2 μg of NP-1 cDNA are used. When the receptors are expressed in isolation, for VEGFR-2, 5 μg of VEGFR-2 cDNA and 2 μg of mock vector cDNA are used.
(§2) After generation of the liposome/DNA solution, the cells are rinsed one time with 5 ml Optimem I, then replaced with another 5 ml of Optimem I containing the liposome/DNA solution. The cells are incubated for two to four hours at 37° C., 5% CO2, then 5 ml of COS-1 cell growth medium is applied and the transfection is allowed to proceed overnight. The following day, cells are trypsinized (0.2% trypsin, 1 mM EDTA, Gibco-BRL), and cells containing common transfectants are pooled. […] The cells are then used for corresponding VEGFR-2/NP-1 complex formation and peptide blocking studies.
(§3) Cells are plated the day before experimentation at 200,000 cells per well in twelve well tissue culture plates (VWR) in 1 ml of growth medium specific for each cell type. On the day of experimentation, the cells were pre-equilibrated at 4° C. for 30 to 60 minutes in binding buffer (0.2% BSA, Sigma; 25 mM Hepes, Gibco; MEM, Gibco). […] The binding reaction is allowed to reach equilibrium for four hours at 4° C. with gentle agitation.
(§4) Unbound ligand is then removed by quickly washing three times with 5 ml ice cold BSA-free binding buffer (MEM, Gibco, 25 mM Hepes, Gibco). Cells are lysed by the addition of 250 μl of RIPS Buffer (previously described), and the lysed cells are transferred to 12×75 mm test tubes and counted using a gamma counter. Generation of competition curves and IC50 values are performed using the Prism software package (Graphpad Software Inc., San Diego, Calif.).

VEGFR-2 = target: T2, VEGFR-2 (Homo sapiens, UniProt P35968); assay type: binding
T2 construct: In the COS-1 cells overexpressing the full-length VEGFR-2; expressed in transfected cells; host or cells: COS-1
Experimental: as §1, §2
Cells are plated the day before experimentation at 200,000 cells per well in twelve well tissue culture plates (VWR) in 1 ml of growth medium specific for each cell type. […]
as §4, with “Generation of competition curves and IC50 values are performed using the Prism software package (Graphpad Software Inc., San Diego, Calif.).” left out

VEGFR-2/NP-1 [2] = system: T3, VEGFR-2/NP-1; assay type: binding, human
T3 construct: In the COS-1 cells overexpressing the full-length VEGFR-2; the NP-1 cDNA used for these experiments would only produce the full-length receptor; expressed in transfected cells; host or cells: COS-1
Experimental: as §1, §2, §3, §4

VEGFR-2/NP-1 [3] = test: Whole cell binding assay: competition for 125I-VEGF165 in stable Balb/C 3T3 A31 cells overexpressing VEGFR-2 and NP-1; set-up: species or system human
Experimental: (§5) Balb/C 3T3 A31 VEGFR-2, NP-1, and VEGFR-2/NP1 stable cells are created using the Nolan Lab Phoenix Retroviral system, previously described.
(§6) Virus containing the hNP-1 gene is generated according to the procedure outlined previously using the QMXE cells.
(§7) Clonal cell lines are obtained by subjecting the NP-1 infected cells to neomycin selection using Balb/C growth medium containing 1.5–2.0 mg/ml G418 (Gibco-BRL) for two weeks. Single colonies are obtained and clones are subjected to Western blot analysis to confirm stable expression of NP-1.
as §3
as §4, with “Generation of competition curves and IC50 values are performed using the Prism software package (Graphpad Software Inc., San Diego, Calif.).” left out

NP-1 [4] = target: T1, NP-1; test: Whole cell binding assay: competition for 125I-VEGF165 in stable Balb/C 3T3 A31 cells overexpressing NP-1; conditions: for IC50: Balb/C 3T3 A31 cells, competition for 125I-VEGF165; for Relative affinity (IC50 peptide / IC50 VEGF165), NP-1: Stable Balb/c cells
Experimental: as §5, §6, §7, §3, §4

[5] = system: VEGF165 vascular growth response; test: Mouse corneal pocket model; assay type: in vivo; set-up: key to Score #1 (subjective neovascular response score) / Score #2 (subjective neovascular response score) / Score #3 (subjective neovascular response score): subjective neovascular growth score, 0 to 6 scale; conditions: for Score #1 (subjective neovascular response score): grader 1; for Score #1 (subjective neovascular response score) / Score #2 (subjective neovascular response score) / Score #3 (subjective neovascular response score): per animal, scale 0 to 6, pellet P6V8 4 μg and/or VEGF165 300 ng; for Score #2 (subjective neovascular response score): grader 2; for Score #3 (subjective neovascular response score): grader 3
Experimental: A 0.2 μl aliquot of this solution yielded a 4 μg dose. Human recombinant VEGF165 was purchased from R&D Systems (Minneapolis, Minn.), supplied in a lyophilized, carrier free form and reconstituted in the same water as the above peptide. A 0.2 μl aliquot of this solution yielded a 300 ng dose.
Male albino mice (Crl: CD-I (ICR) BR, VAF) from Charles River (Portage, N.C.), 20–24 grams were used. […] Compound adsorbed pellets were fabricated and implanted as described below. The treated eye was imaged on the day of implantation (day 0) and on days 4 and 7 following surgery. The growth response was subjectively graded on a scale from 0 to 6 by three independent graders blinded from the treatment grouping labels using the 3× printed image.
Polyvinyl alcohol (PVA) matrix material (Rippey, El Dorado Hills, Calif.) was cut into 1 cm×3 cm pieces and placed in a vibratome for sectioning on edge to produce 300 μm thick strips. The strips were individually sterilized by exposure to ethylene oxide. A strip was then cut under a dissecting microscope into approximately 300 μm cubes. The desired concentration of test compound or vehicle was adsorbed, sometimes utilizing a micro dessicant chamber. An HP auto sampler micro-syringe (Hamilton, P/N 7000.5) controlled the exact volume of the agent adsorbed onto the sponge. The sponge was then placed on a microscope slide prepared with a coating (20 μl spread over a 0.75 mm×1.5 mm area) of 12% hydron (Sigma, St. Louis, Mo.). The slide was protected in a clean petri dish and placed into a dessicator at 4° C. for a few hours or overnight. The dry, adsorbed sponges were mechanically flattened and overlaid with another aliquot of 12% hydron and again placed into a dessicator to cure the hydron coating. Fabrication of the adsorbed PVA sponge-hydron sandwich (referred to as a pellet) was done no more than 48 hours prior to implantation and the pellets were stored at 4° C. On the day of surgery and just prior to implantation, the pellet was trimmed so that the sponge remained encased by hydron (approximately 400 μm×400 μm×50 μm) and could be carefully removed from the slide.
Mice were anesthetized with 0.05 cc of Ketamine (140 mg/kg) and 0.03 cc Xylazine (17 mg/kg). A surgical plane of anesthesia was maintained by subsequent administration of half doses of the above compounds as needed. The whiskers on the animal's right side were trimmed down to ¼ of an inch. The right eye was bathed in an ophthalmic local anesthetic solution (Ophthaine, 0.5% tetracine hydrochloride) initially and throughout the procedure. The animal was placed on its side and the skin around the eye was gently retracted to expose the lateral and apical aspects of the cornea. The lateral limbic artery bifurcation was positioned horizontally. While stabilizing the eye against the ocular orbit, a vertical incision was made using a micro scalpel into the corneal tissue just lateral to the pupil. Care was taken to prevent accidental perforation of the anterior eye chamber. The incision depth was carefully deepened until a delicate and small lateral stab could be made (on axis with the lateral limbic artery bifurcation) with the micro scalpel into the middle of the corneal stroma. This lateral, intrastromal incision was enlarged by blunt dissection with very fine forceps until a pocket was formed from the vertical incision toward the limbus.
A hydron coated PVA sponge with adsorbed test compound (pellet) was prepared for implantation by carefully excising and removing it from the microscope slide. The pellet was introduced gently into the corneal pocket and advanced to within 1–2 mm of the limbus. The edges of the vertical corneal incision were approximated to encourage rapid healing. The imaging procedure (described below) was used to document the native limbic vascular architecture at the time of implantation. Post surgical recovery of the animal consisted of triple antibiotic ophthalmic ointment to prevent corneal drying, abrasion and infection. […]

COS-1 cells (Mock) = test: Saturation analysis of 125I-VEGF165 binding, COS-1 Mock; conditions: COS-1 transient
Excerpt: To perform hNeuropilin-1 (hNP-1) and hVEGFR-2 complex formation and peptide blocking experiments, the hVEGFR-2 and hNP-1 cDNAs are cloned into the pJFE14 mammalian expression plasmid (Regeneron Pharmaceuticals) containing the SRα promoter. COS-1 cells are transiently transfected with pJFE14 (Regeneron Pharmaceuticals), hVEGFR-2 (Regeneron Pharmaceuticals), or hNP-1 (Procter & Gamble Pharmaceuticals) expression plasmids using the Lipofectamine-2000 system (Gibco-BRL). […] When co-expressing VEGFR-2 and NP-1, 5 μg of VEGFR-2 cDNA and 2 μg of NP-1 cDNA are used. When the receptors are expressed in isolation, for VEGFR-2, 5 μg of VEGFR-2 cDNA and 2 μg of mock vector cDNA are used.
as §4, with “Calif.). […]” for “Calif.).”
This possibility was evaluated by determining equilibrium binding Kd values in cells expressing VEGFR-2 alone, NP-1 alone, and cells co-expressing both receptors, using standard saturation analysis techniques as known to one skilled in the art.

[6] = system: Balb/c cells (Mock, endogenous NP-1); test: Saturation analysis of 125I-VEGF165 binding, Balb/c Mock (pGBMGH); conditions: Balb/c stable
Excerpt: Pools of infected Balb/C 3T3 A31 cells expressing hVEGFR-2 or GFP alone (Mock) are selected two times by FACS sorting using the hVEGFR-2 specific monoclonal antibody J5F4A2 (Procter & Gamble Pharmaceuticals as described in J. Biol. Chem. 276(27):25520–25531 (2001), which is expressly incorporated by reference herein in its entirety, for the VEGFR-2 cells, or by GFP emission for the Mock cells. Clonal populations of VEGFR-2 are generated by subjecting the FACS sorted VEGFR-2 cell pool to limiting dilution. A clonal hVEGFR-2 cell line termed D7R2 is selected for experimental studies based on its high levels of hVEGFR-2 expression by Western blot analysis. The pool of the Mock GFP expressing cells, hereinafter referred to as pGBMGH, is not subjected to limiting dilutions and thus is not a clonal population.
as §4, with “Generation of competition curves and IC50 values are performed using the Prism software package (Graphpad Software Inc., San Diego, Calif.).” left out
This possibility was evaluated by determining equilibrium binding Kd values in cells expressing VEGFR-2 alone, NP-1 alone, and cells co-expressing both receptors, using standard saturation analysis techniques as known to one skilled in the art. […]

T1 sequence (O14786 22-923): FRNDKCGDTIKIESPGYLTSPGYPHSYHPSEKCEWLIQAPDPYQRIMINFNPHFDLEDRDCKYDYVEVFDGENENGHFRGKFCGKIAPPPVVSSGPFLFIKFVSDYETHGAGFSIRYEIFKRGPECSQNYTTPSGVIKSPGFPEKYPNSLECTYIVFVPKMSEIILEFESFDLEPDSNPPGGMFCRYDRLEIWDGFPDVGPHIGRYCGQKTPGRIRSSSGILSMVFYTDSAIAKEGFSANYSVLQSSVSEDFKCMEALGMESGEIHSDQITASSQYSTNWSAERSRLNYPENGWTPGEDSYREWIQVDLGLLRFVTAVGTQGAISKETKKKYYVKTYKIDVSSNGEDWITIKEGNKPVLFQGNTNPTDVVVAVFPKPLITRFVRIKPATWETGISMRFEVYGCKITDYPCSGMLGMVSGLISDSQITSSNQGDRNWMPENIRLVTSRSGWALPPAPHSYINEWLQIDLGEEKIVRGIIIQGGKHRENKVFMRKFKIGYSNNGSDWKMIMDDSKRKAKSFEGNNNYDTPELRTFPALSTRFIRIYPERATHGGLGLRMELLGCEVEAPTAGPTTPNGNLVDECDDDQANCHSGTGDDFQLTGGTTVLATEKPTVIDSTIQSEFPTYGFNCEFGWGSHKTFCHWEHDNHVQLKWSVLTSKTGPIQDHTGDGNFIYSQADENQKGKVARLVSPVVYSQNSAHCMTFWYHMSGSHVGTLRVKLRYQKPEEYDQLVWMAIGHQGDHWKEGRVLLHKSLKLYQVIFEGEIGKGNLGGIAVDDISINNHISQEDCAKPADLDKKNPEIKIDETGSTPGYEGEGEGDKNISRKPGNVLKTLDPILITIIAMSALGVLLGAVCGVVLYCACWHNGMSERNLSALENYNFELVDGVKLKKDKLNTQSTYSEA
T2 sequence (P35968 20-1356): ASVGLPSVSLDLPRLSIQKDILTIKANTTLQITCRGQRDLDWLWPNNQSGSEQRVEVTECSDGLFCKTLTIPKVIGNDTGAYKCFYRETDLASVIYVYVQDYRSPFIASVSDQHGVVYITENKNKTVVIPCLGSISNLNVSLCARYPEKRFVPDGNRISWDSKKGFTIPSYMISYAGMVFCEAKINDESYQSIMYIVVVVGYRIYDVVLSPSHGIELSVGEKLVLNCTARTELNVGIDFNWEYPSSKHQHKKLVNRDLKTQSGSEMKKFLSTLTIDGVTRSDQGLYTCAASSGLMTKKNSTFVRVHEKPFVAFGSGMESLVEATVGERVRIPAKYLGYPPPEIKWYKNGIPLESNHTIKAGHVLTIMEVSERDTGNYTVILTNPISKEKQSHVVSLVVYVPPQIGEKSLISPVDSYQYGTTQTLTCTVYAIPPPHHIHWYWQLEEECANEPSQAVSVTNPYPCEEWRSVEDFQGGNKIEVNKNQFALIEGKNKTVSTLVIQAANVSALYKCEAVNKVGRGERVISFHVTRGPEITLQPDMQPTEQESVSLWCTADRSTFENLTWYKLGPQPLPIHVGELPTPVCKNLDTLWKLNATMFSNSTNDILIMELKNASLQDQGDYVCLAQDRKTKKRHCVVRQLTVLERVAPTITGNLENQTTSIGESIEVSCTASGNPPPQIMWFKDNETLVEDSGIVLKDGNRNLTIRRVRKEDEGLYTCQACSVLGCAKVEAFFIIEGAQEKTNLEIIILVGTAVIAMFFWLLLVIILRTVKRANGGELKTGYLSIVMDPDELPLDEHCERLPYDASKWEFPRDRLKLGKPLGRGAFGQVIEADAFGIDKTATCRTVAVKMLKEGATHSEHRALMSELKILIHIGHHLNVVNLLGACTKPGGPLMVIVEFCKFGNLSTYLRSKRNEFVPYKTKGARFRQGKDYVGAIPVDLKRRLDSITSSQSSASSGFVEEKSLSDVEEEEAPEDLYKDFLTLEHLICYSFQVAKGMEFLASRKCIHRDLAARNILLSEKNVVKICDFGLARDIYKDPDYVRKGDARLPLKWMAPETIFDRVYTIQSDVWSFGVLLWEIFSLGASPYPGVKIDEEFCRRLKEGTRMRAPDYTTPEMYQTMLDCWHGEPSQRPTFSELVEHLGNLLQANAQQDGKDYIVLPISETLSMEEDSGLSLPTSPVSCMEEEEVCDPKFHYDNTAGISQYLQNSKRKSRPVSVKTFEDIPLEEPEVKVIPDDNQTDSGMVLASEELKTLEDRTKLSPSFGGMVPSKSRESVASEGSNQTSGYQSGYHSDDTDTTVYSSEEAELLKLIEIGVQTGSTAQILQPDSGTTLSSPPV

| Substance | Relative Affinity to Lead Peptide (RALP), NP-1 (NP-1 [1]) | Relative Affinity to Lead Peptide (RALP), VEGFR-2 (VEGFR-2) | Relative Affinity to Lead Peptide (RALP), VEGFR-2/NP-1 (VEGFR-2/NP-1 [2]) | Relative affinity (IC50 peptide / IC50 VEGF165), VEGFR-2/NP-1 (VEGFR-2/NP-1 [3]) | IC50 (NP-1 [4]) [nM] | Relative affinity (IC50 peptide / IC50 VEGF165), NP-1 (NP-1 [4]) | Score #1 (subjective neovascular response score) [5] | Score #2 (subjective neovascular response score) [5] | Score #3 (subjective neovascular response score) [5] | also measured |
| --- | --- | --- | --- | --- | --- | --- | --- | --- | --- | --- |
| H-RRPKGRGKRAAAKQRPSDKPRR-OH [AS-3, RRP KGR GKR AAA KQR PSD KPR R] | 0.55 | 4 | – | – | – | – | – | – | – | Relative Affinity to Lead Peptide (RALP), VEGFR-2/NP-1 (VEGFR-2/NP-1 [2]; AS series, lead peptide P6V8CS, COS-1, NC = no competition): complete loss of binding |
| H-RRPKGRGKRRREKQRAAAKPRR-OH [AS-4A] | 2.1 | 1.9 | 0.78 | – | – | – | – | – | – | – |
| KGRGKRRREKQRPCDKPRR [Peptide P6V8-3N, KGR GKR RRE KQR P CDK PRR] | – | – | – | 6,928 | 254 | 1,607 | – | – | – | – |
| RRPKGRGKRRREAAAPSDKPRR [AS-4] | 0.45 | – | 4.2 | 3,856 | 17.8 | 112 | – | – | – | selectivity for cells expressing NP-1 alone versus cells co-expressing VEGFR-2 and NP-1 (NP-1 [1]; COS-1): about 100 fold |
| RRPKGRGKRRREKQRPCDKPRR [Peptide P6V8, RRP KGR GKR RRE KQR P CDKPRR] | – | – | – | – | – | – | 0 | 0 | 0 | score of eye images by all graders ([5]; Day 7, P6V8 alone 4 μg, 0 = no change in limbic vasculature from Day 0): 0; vascular growth response to 300 ng of VEGF165 in the presence of peptide ([5]; P6V8 4 μg, mouse corneal micro pocket): attenuated |
| VEGF165: human recombinant VEGF165 (R&D Systems), vascular endothelial growth factor isoform 165 | – | – | – | – | – | – | 2 (2×) and 3 (3×) and 4 (2×) and 5 | 2 (3×) and 4 (4×) and 5 | 2 (3×) and 3 (2×) and 4 and 5 (2×) | Kd (COS-1 cells (Mock)): 1.11 nM; Log Kd ± SEM (COS-1 cells (Mock)): −8.95 ± 0.31; Kd [6]: 0.222 nM; Log Kd ± SEM [6]: −9.65 ± 0.13 |
